Measured values taken from patent publication US20220008563A1, “RADIOLABELLED AND NONRADIOLABELLED PEGYLATED COMPOUNDS AND USES THEREOF” (The Regents of the University of California, priority 2020, published 2022).
Values belong to the compound of their own block, whether it stands above or below them.

How the values were obtained:
MAO-A = molecular target: T1, MAO-A (Homo sapiens, UniProt P21397); test: Effect of drugs on the binding of [^18F]FAZIN3 in postmortem human brain sections; details: for selectivity of binding for MAO-A versus MAO-B: by use of clorgyline (MAO-A inhibitor) and deprenyl (MAO-B inhibitor)
T1 construct: tissue Banner Sun Health Research Institute; host or cells: postmortem human anterior cingulate / corpus callosum sections (CN, AD, PD subjects)
T1 sequence (P21397 1-527): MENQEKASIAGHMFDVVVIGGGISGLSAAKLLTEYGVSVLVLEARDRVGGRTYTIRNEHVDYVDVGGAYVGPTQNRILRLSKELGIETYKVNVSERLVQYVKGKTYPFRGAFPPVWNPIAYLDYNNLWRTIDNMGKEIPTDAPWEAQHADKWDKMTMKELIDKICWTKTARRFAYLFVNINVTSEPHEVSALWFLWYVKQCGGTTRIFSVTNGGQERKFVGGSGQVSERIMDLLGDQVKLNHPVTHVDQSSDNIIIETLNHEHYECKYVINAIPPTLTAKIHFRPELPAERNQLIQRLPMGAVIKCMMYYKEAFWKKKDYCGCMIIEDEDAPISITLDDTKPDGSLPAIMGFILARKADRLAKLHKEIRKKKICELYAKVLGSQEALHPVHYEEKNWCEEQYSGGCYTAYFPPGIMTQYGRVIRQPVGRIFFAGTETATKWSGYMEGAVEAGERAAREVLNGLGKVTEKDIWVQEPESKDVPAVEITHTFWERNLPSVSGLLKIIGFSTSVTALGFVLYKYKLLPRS
Experimental: MK-6240 (10 μM) was used since it is known to bind to Tau. […] The slides containing the sections (10 μm thick) were preincubated in PBS buffer for 15 minutes in eight different slide chambers (one total binding and seven with the different drugs). The preincubation PBS buffer was discarded and appropriate amount of each drug (dissolved in ethanol) was added to the chambers with the slides. […] The chambers were incubated at 25° C. for 1.25 h. The slides were then washed with cold PBS buffer twice, and cold water, respectively. The slides with the brain sections were air dried, exposed overnight on a phosphor film, and then placed on the Phosphor Autoradiographic Imaging System/Cyclone Storage Phosphor System (Packard Instruments Co).

Tau protein [1] = molecular target: Tau protein (Homo sapiens, UniProt P10636); test: In vitro binding in human AD brain slices using [^125I]IPPI; details: [^125I]IPPI labeled human AD brain slices
Experimental: Assessing the binding specificity of Flotaza. In vitro binding affinity of Flotaza in human AD brain slices using [^3H]PIB for Aβ plaques and [^125I]IPPI for Tau were carried out. […] Thus, Flotaza is a selective Aβ plaque agent.

Aβ plaques [2] = test: Postmortem human brain autoradiography of [^18F]Flotaza in AD subjects; format: binding
From the text: Postmortem human brain autoradiography [^18F]Flotaza in AD subjects. Well characterized brain samples were obtained from Banner Health Research Institute. Brain slices from six AD subjects included anterior cingulate (gray matter, GM) and corpus callosum (white matter, WM) as shown for one subject in FIG. 24A. The AD brain sections of the six AD subjects were further confirmed to contain Aβ plaques in the GM regions by immunostaining with anti-Aβ Biolegend (known to stain Aβ1-16) as shown in FIG. 24B.
It must be noted that in these experiments, after [^18F]Flotaza binding, the slices were washed with 50% alcohol in PBS buffer.

human Aβ plaques = human Aβ plaques (Homo sapiens, UniProt P05067); test: In vitro binding affinity in human AD brain slices using [^3H]PIB; details: human AD brain slices (anterior cingulate, corpus callosum)
Experimental: Analytical thin-layer chromatography (TLC) was used to monitor reactions (Baker-flex, Phillipsburg, N.J., USA). RadioTLC were scanned on an AR-2000 imaging scanner (Eckart & Ziegler, Berlin, Germany). Electrospray mass spectra were obtained from a Model 7250 mass spectrometer (Micromass LCT). Proton NMR spectra were recorded on a Bruker OM EGA 500-MHz spectrometer. Tritium was assayed by using a Packard Tri-Carb Liquid scintillation counter with 65% efficiency. Human postmortem brain tissue samples were obtained from Banner Sun Health Research Institute, Sun City, Ariz. brain tissue repository for in vitro experiments. Age and gender matched AD brain and cognitively normal (CN) brain tissue samples selected for end-stage pathology (Braak & Braak stage of VI; Braak and Braak 1991). Human postmortem brain slices were obtained from chunks of frozen tissue on a Leica 1850 cryotome cooled to −20° C. Tritium and iodine-125, and fluorine-18 autoradiographic studies were carried out by exposing tissue samples on storage phosphor screens (Perkin Elmer Multisensitive, Medium MS and tritium sensitive phosphor screens). The apposed phosphor screens were read and analyzed by OptiQuant acquisition and analysis program of the Cyclone Storage Phosphor System (Packard Instruments Co., Boston, Mass.). […]

Aβ plaques [3] = details: hippocampal AD brain sections; cited from earlier work
Tau protein [4] = test: [^125I]IPPI / [^124I]IPPI autoradiography of postmortem AD brain slices; format: binding, human
Experimental: FIG. 18A-H: provides the results of [^125I]IPPI competitive binding assay with various inhibitors. (A) Postmortem human brain 10 μm thick sections (from two AD subjects, 11-107 and 11-38) of anterior cingulate (AC) grey matter (arrows showing GM) and corpus callosum (CC) white matter (WM). (B) [^125I]IPPI binding to grey matter, AC with low nonspecific binding in white matter, CC. […] (E) BrPPI, 10 μM effect on [^125I ]IPPI binding. (F) MK-6240, 10μM effect on [^125I]IPPI binding. (G) Immunostaining of 11-38 with Dako A0024 for total Tau; (i) picture of entire slice and (ii) magnification (x10) of box in (i). (H) Plot comparing GM and WM in the two AD subjects with different drugs.

Aβ plaques [5] = test: ^125I-IAZA brain autoradiography in postmortem human AD brain; format: binding; details: anterior cingulate
From the text: FIG. 22A-F provides the results of brain autoradiography in postmortem human brain from an Alzheimer patient using ^125I-IAZA and ^124I-IAZA. (A) AD brain slice showing gray matter (GM), anterior cingulate and white matter (WM) corpus callosum. […] (D) AD brain cortex slice showing gray matter on the left edges. (E)-(F) ^125I-IAZA binding in the outer regions containing gray matter which is consistent with Tau buildup.

human Aβ plaques, sequence (P05067 672-713): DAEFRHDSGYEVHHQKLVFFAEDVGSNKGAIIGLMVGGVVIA
Tau protein (Homo sapiens, UniProt P10636), sequence (P10636 with tags, fused parts or gaps): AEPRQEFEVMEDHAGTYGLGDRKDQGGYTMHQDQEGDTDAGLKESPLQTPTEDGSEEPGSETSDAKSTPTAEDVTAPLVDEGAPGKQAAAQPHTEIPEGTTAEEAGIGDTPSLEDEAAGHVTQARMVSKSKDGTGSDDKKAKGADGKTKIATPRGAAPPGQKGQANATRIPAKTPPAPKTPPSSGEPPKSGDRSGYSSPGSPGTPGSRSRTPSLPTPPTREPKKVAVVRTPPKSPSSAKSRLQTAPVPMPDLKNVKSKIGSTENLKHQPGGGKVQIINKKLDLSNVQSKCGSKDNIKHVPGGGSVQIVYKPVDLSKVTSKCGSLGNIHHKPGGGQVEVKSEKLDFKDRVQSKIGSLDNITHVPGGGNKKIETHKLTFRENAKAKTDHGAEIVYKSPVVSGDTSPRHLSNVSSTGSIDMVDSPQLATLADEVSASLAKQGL

selectivity of binding for MAO-A versus MAO-B (MAO-A): selective MAO-A binding
Compound: 4-O-[^18F]FluoroPEG3-2-(1H-pyrrolo[2,3-c]pyridine-1-yl)pyridine [[^18F]FAZIN3]

Compound: FCCOCCOCCOc1ccnc(-n2ccc3ccncc32)c1 [FAZIN3, 4-O-FluoroPEG3-2-(1H-pyrrolo[2,3-c]pyridine-1-yl)pyridine]
selectivity of binding for MAO-A versus MAO-B (MAO-A): selectively bound to MAO-A

effect on the binding of [^125I]IPPI (Tau protein [1]): did not have any significant effect
Compound: CN(C)c1ccc(N=Nc2ccc(OCCOCCOCCF)cc2)cc1 [Flotaza]

displacement (inhibition) of [^18F]FAZIN3 binding (MAO-A; drug 10 μM, human brain sections): did not have much effect
Compound: Nc1c(F)ccc2cnc(-n3ccc4ccncc43)cc12 [MK-6240, reference compound]

Compound: CNc1ccc(-c2nc3ccc(O)cc3s2)cc1 [PIB, reference compound]
effect on grey matter binding of [^18F]Flotaza (Aβ plaques [2]; AD brain sections treated with the drug): significantly reduced

Compound: CNc1ccc(N=Nc2ccc(N(C)C)cc2)cc1 [TAZA]
Ki (human Aβ plaques): 0.54 nM

Compound: [11CH3]Nc1ccc(-c2nc3ccc(O)cc3s2)cc1 [[^11C]PIB]
GM/WM ratios (Aβ plaques [3]): lower GM/WM ratios

binding in the grey matter regions of AD subjects (Aβ plaques [2]; anterior cingulate, AD subjects): Extensive binding | ratio between gray matter and white matter binding (Aβ plaques [2]; six AD subjects, slices washed with 50% alcohol in PBS buffer): > 100
Compound: CN(C)c1ccc(N=Nc2ccc(OCCOCCOCC[18F])cc2)cc1 [[^18F]Flotaza]

Compound: [125I]c1ccc2cnc(-n3ccc4ccncc43)cc2c1 [[^125I]IPPI, 6-[^125I]iodo-3-(1H-pyrrolo[2,3-c]pyridine-1-yl)isoquinoline]
sensitivity of binding to MAO inhibitors (Tau protein [4]; MAO inhibitors at <1 μM concentrations): resistance to MAO inhibitors | binding to Tau protein / neurofibrillary tangles in Alzheimer's disease brain grey matter (Tau protein [4]; postmortem AD brain slices): Excellent binding

Compound: CN(C)c1ccc(N=Nc2ccc([125I])cc2)cc1 [^125I-IAZA]
binding in gray matter of AD brain slices (Aβ plaques [5]): binding in the gray matter regions
